Read-outs that look alike come from different tables or passages of the source.
Key:
[1] = test system: Key Broadleaf Weed and Crop Species; test: Post-Emergent Test II (Table 5); format: in vivo; details: post-emergence, 336 h; for pest or weed control at 70 g/ha: application rate 70 (kg ai/ha; footnote: g ai/ha); for pest or weed control at 140 g/ha: application rate 140 (kg ai/ha; footnote: g ai/ha)
Procedure, shortened: (§1)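 Growth stage at treatment: first or second true leaf. Application: compound in acetone/DMSO diluted into an adjuvant-containing aqueous mix, sprayed at 187 L/ha at several rates. Assessment: visual 0-100% injury at 14 days against untreated plants.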

[2] = test system: Key Grass and Sedge Weeds as well as Grass Crops; test: Post-Emergent Test II (Table 6); format: in vivo; details: post-emergence, 336 h, 14 days after application; for pest or weed control at 70 g/ha: 70 g ai/ha; for pest or weed control at 140 g/ha: 140 g ai/ha
Procedure, shortened: as §1

[3] = Abutilon theophrasti, ABUTH: velvetleaf (Abutilon theophrasti), read-out: Visual Growth Reduction (%) 14 Days After Application ABUTH
[4] = Amaranthus retroflexus, AMARE: redroot pigweed (Amaranthus retroflexus), read-out: Visual Growth Reduction (%) 14 Days After Application AMARE
[5] = Brassica napus, BRSSS: oilseed rape, canola (Brassica napus), read-out: Visual Growth Reduction (%) 14 Days After Application BRSSS
[6] = Chenopodium album, CHEAL: lambsquarters (Chenopodium album), read-out: Visual Growth Reduction (%) 14 Days After Application CHEAL
[7] = Euphorbia heterophylla, EPHHL: wild poinsettia (Euphorbia heterophylla), read-out: Visual Growth Reduction (%) 14 Days After Application EPHHL
[8] = Helianthus annuus, HELAN: sunflower (Helianthus annuus), read-out: Visual Growth Reduction (%) 14 Days After Application HELAN
[9] = Viola tricolor, VIOTR: wild pansy (Viola tricolor), read-out: Visual Growth Reduction (%) 14 Days After Application VIOTR
[10] = CYPSS, read-out: Visual Growth Reduction (%) 14 Days After Application CYPSS
[11] = DIGSA: crabgrass (Digitaria sanguinalis), read-out: Visual Growth Reduction (%) 14 Days After Application DIGSA
[12] = ECHSS, read-out: Visual Growth Reduction (%) 14 Days After Application ECHSS
[13] = ORYSS (crop), read-out: Visual Growth Reduction (%) 14 Days After Application ORYSS
[14] = SETFA: giant foxtail (Setaria faberi), read-out: Visual Growth Reduction (%) 14 Days After Application SETFA
[15] = SORVU: grain sorghum (Sorghum vulgare), read-out: Visual Growth Reduction (%) 14 Days After Application SORVU
[16] = TRZSS (crop), read-out: Visual Growth Reduction (%) 14 Days After Application TRZSS
[17] = ZEAMX: maize, corn (Zea mays), read-out: Visual Growth Reduction (%) 14 Days After Application ZEAMX

## Nc1cc(-c2ccc(Cl)nc2Cl)nc(C(=O)O)c1Cl [Compound 1, 4-amino-2′,5,6′-trichloro-[2,3′-bipyridine]-6-carboxylic acid]
[1]; [3]
  pest or weed control at 70 g/ha: 30 to 44%
  pest or weed control at 140 g/ha: 75 to 84%
[1]; [4]
  pest or weed control at 70 g/ha: 95 to 100%
  pest or weed control at 140 g/ha: 95 to 100%
[1]; [5]
  pest or weed control at 70 g/ha: 85 to 94%
  pest or weed control at 140 g/ha: 95 to 100%
[1]; [6]
  pest or weed control at 70 g/ha: 85 to 94%
  pest or weed control at 140 g/ha: 95 to 100%
[1]; [7]
  pest or weed control at 70 g/ha: 0 to 29%
  pest or weed control at 140 g/ha: 0 to 29%
[1]; [8]
  pest or weed control at 70 g/ha: 75 to 84%
  pest or weed control at 140 g/ha: 85 to 94%
[1]; [9]
  pest or weed control at 70 g/ha: 0 to 29%
  pest or weed control at 140 g/ha: 30 to 44%
[2]; [10]
  pest or weed control at 70 g/ha: 0 to 29%
  pest or weed control at 140 g/ha: 0 to 29%
[2]; [11]
  pest or weed control at 70 g/ha: 0 to 29%
  pest or weed control at 140 g/ha: 0 to 29%
[2]; [12]
  pest or weed control at 70 g/ha: 0 to 29%
  pest or weed control at 140 g/ha: 0 to 29%
[2]; [13]
  pest or weed control at 70 g/ha: 0 to 29%
  pest or weed control at 140 g/ha: 0 to 29%
[2]; [14]
  pest or weed control at 70 g/ha: 0 to 29%
  pest or weed control at 140 g/ha: 0 to 29%
[2]; [15]
  pest or weed control at 70 g/ha: 0 to 29%
  pest or weed control at 140 g/ha: 0 to 29%
[2]; [16]
  pest or weed control at 70 g/ha: 0 to 29%
  pest or weed control at 140 g/ha: 0 to 29%
[2]; [17]
  pest or weed control at 70 g/ha: 0 to 29%
  pest or weed control at 140 g/ha: 0 to 29%
other
  melting point: 184 °C (dec.)

## COc1nc(C(F)(F)F)ccc1-c1nc(C(=O)O)c(Cl)c(N)c1F [Compound 2, 4-amino-5-chloro-3-fluoro-2′-methoxy-6′-(trifluoromethyl)-[2,3′-bipyridine]-6-carboxylic acid]
[1]; [3]
  pest or weed control at 70 g/ha: 0 to 29%
  pest or weed control at 140 g/ha: 0 to 29%
[1]; [4]
  pest or weed control at 70 g/ha: 0 to 29%
  pest or weed control at 140 g/ha: 0 to 29%
[1]; [5]
  pest or weed control at 70 g/ha: 30 to 44%
  pest or weed control at 140 g/ha: 45 to 59%
[1]; [6]
  pest or weed control at 70 g/ha: 0 to 29%
  pest or weed control at 140 g/ha: 0 to 29%
[1]; [7]
  pest or weed control at 70 g/ha: 0 to 29%
  pest or weed control at 140 g/ha: 0 to 29%
[1]; [8]
  pest or weed control at 70 g/ha: 60 to 74%
  pest or weed control at 140 g/ha: 60 to 74%
[1]; [9]
  pest or weed control at 70 g/ha: 0 to 29%
  pest or weed control at 140 g/ha: 0 to 29%
[2]; [10]
  pest or weed control at 70 g/ha: 0 to 29%
  pest or weed control at 140 g/ha: 0 to 29%
[2]; [11]
  pest or weed control at 70 g/ha: 0 to 29%
  pest or weed control at 140 g/ha: 0 to 29%
[2]; [12]
  pest or weed control at 70 g/ha: 0 to 29%
  pest or weed control at 140 g/ha: 0 to 29%
[2]; [13]
  pest or weed control at 70 g/ha: 0 to 29%
  pest or weed control at 140 g/ha: 0 to 29%
[2]; [14]
  pest or weed control at 70 g/ha: 0 to 29%
  pest or weed control at 140 g/ha: 0 to 29%
[2]; [15]
  pest or weed control at 70 g/ha: 0 to 29%
  pest or weed control at 140 g/ha: 0 to 29%
[2]; [16]
  pest or weed control at 70 g/ha: 0 to 29%
  pest or weed control at 140 g/ha: 0 to 29%
[2]; [17]
  pest or weed control at 70 g/ha: 0 to 29%
  pest or weed control at 140 g/ha: 0 to 29%
other
  melting point: 133 to 134 °C

## Nc1c(F)c(-c2ccc(C3CC3)nc2)nc(C(=O)O)c1Cl [Compound 36, 4-amino-5-chloro-6′-cyclopropyl-3-fluoro-[2,3′-bipyridine]-6-carboxylic acid]
[1]; [3]
  pest or weed control at 70 g/ha: 85 to 94%
  pest or weed control at 140 g/ha: 95 to 100%
[1]; [4]
  pest or weed control at 70 g/ha: 95 to 100%
  pest or weed control at 140 g/ha: 95 to 100%
[1]; [5]
  pest or weed control at 70 g/ha: 85 to 94%
  pest or weed control at 140 g/ha: 95 to 100%
[1]; [6]
  pest or weed control at 70 g/ha: 95 to 100%
  pest or weed control at 140 g/ha: 95 to 100%
[1]; [7]
  pest or weed control at 70 g/ha: 95 to 100%
  pest or weed control at 140 g/ha: 95 to 100%
[1]; [8]
  pest or weed control at 70 g/ha: 95 to 100%
  pest or weed control at 140 g/ha: 95 to 100%
[1]; [9]
  pest or weed control at 70 g/ha: 0 to 29%
  pest or weed control at 140 g/ha: 0 to 29%
[2]; [10]
  pest or weed control at 70 g/ha: 95 to 100%
  pest or weed control at 140 g/ha: 95 to 100%
[2]; [11]
  pest or weed control at 70 g/ha: 60 to 74%
  pest or weed control at 140 g/ha: 75 to 84%
[2]; [12]
  pest or weed control at 70 g/ha: 85 to 94%
  pest or weed control at 140 g/ha: 85 to 94%
[2]; [13]
  pest or weed control at 70 g/ha: 0 to 29%
  pest or weed control at 140 g/ha: 0 to 29%
[2]; [14]
  pest or weed control at 70 g/ha: 95 to 100%
  pest or weed control at 140 g/ha: 95 to 100%
[2]; [15]
  pest or weed control at 70 g/ha: 60 to 74%
  pest or weed control at 140 g/ha: 60 to 74%
[2]; [16]
  pest or weed control at 70 g/ha: 30 to 44%
  pest or weed control at 140 g/ha: 45 to 59%
[2]; [17]
  pest or weed control at 70 g/ha: 95 to 100%
  pest or weed control at 140 g/ha: 95 to 100%
other
  melting point: 260 to 265 °C (dec.)

Reference: US10765114B2, “4-amino-6-(pyridyl and 2-substitutedphenyl)-picolinates and 6-amino-2-(pyridyl and 2-substitutedphenyl)-pyrimidine-4-carboxylates and their use as herbicides” (Dow AgroSciences LLC, priority 2013, dated 2020)
